These results are taken from patent publication US9751837B2, “Kinase inhibitors” (RESPIVERT LIMITED, priority 2014, dated 2017).

The IC50 is the concentration needed to halve the response being measured. A word on the thermodynamic solubility: it is solubility found after equilibrating the solid with the medium.

Values after ≈ are worked out from the molar mass of the structure shown.

One series concerns the target GSK 3α (Homo sapiens (Human), UniProt P49840). Kind of series: GSK 3α enzyme inhibition (Method 2), Z-LYTE FRET. Type of series: biochemical. The settings on record: read-out: IC50 Values for Enzyme Inhibition GSK3α. How it is done:
The enzyme inhibitory activities of compounds disclosed herein are determined by FRET using synthetic peptides labelled with both donor and acceptor fluorophores (Z-LYTE, Invitrogen Ltd., Paisley, UK).
The following two assay variants can be used for determination of GSK 3α inhibition.
The inhibitory activities of compounds of the invention against the GSK 3α enzyme isoform (Invitrogen), are evaluated by determining the level of activation/phosphorylation of the target peptide. The GSK3-α protein (500 ng/mL, 2.5 μL) is mixed with the test compound (2.5 μL at either 4 μg/mL, 0.4 μg/mL, 0.04 μg/mL, or 0.004 μg/mL) for 2 hr at RT. The FRET peptide (8 μM, 2.5 μL), which is a phosphorylation target for GSK3α, and ATP (40 μM, 2.5 μL) are then added to the enzyme/compound mixture and the resulting mixture incubated for 1 hr. Development reagent (protease, 5 μL) is added for 1 hr prior to detection in a fluorescence microplate reader (Varioskan® Flash, ThermoFisher Scientific).
In all cases, the site-specific protease cleaves non-phosphorylated peptide only and eliminates the FRET signal. Phosphorylation levels of each reaction are calculated using the ratio of coumarin emission (donor) over fluorescein emission (acceptor), for which high ratios indicate high phosphorylation and low ratios indicate low phosphorylation levels.
This method follows the same steps as Method 1 above, but utilises a shorter period of mixing of the test compound (105 minutes instead of 2 hours) with the GSK3-α protein. In addition, the concentrations of test compound employed are either 10 μg/mL, 1 μg/mL, 0.1 μg/mL, or 0.01 μg/mL

A further series relates to Jurkat cells. Kind of series: Cell cytotoxicity assay (r). Type of series: cell-based, human. The settings on record: 24 hours. The essentials:
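Viability read by flow cytometry as the fraction of propidium iodide-negative cells (7.5 μg/mL PI, 15 min), relative to 1.0% DMSO control. Beforehand, 1×10^5 Jurkat cells in RPMI/10% FBS were treated 24 h at 37° C., 5% CO2 with test compound at final 20, 5 or 1 μg/mL.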

A short description of series [1]: Solubility in fasted-state simulated colonic fluid (FaSSCoF) at pH 6.5. The series is classed as physicochemical. Conditions: 25 °C, pH 6.5, fassgf or other biorelevant, thermodynamic from solid. The essentials: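 Compounds were suspended at up to 2-10 mg/mL in pH 6.5 Tris/maleate FaSSCoF containing a five-bile-acid mixture, phosphatidylcholine, palmitic acid and BSA. After 24 h equilibration at 25° C the suspension was filtered and the filtrate quantified by HPLC peak area against a standard.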

Setting [2] is: pH 6.5 FaSSCoF Solubility (mg/mL) Run 1.
Setting [3] is: pH 6.5 FaSSCoF Solubility (mg/mL) Run 2.

Chain of GSK 3α (P49840 whole entry): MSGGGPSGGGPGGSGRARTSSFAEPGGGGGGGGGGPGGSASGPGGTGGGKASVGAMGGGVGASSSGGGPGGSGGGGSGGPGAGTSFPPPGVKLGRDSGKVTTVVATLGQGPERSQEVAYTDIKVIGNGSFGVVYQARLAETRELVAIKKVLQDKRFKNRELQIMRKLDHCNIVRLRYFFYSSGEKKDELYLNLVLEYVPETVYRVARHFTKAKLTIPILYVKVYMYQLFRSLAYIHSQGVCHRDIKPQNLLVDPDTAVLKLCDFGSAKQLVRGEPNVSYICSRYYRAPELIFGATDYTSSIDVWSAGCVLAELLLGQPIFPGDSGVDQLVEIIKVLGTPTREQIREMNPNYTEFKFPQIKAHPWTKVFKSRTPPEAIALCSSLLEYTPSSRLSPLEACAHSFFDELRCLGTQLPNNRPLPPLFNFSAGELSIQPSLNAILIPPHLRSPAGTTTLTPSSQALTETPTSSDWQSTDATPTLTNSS

For the compound `COc1cc(Nc2cc(Oc3ccc(NC(=O)Nc4cc(C(C)(C)C)cc(NS(C)(=O)=O)c4OC)c4ccccc34)ccn2)ccc1C(=O)NCCCN1CCN(C)CC1` [17(aa), 4-[[4-[[4-[[5-tert-butyl-3-(methanesulfonamido)-2-methoxy-phenyl]carbamoylamino]-1-naphthyl]oxy]-2-pyridyl]amino]-2-methoxy-N-[3-(4-methylpiperazin-1-yl)propyl]benzamide], the IC50 on GSK 3α came out at 2.93 µM.

With `COc1cc(Nc2cc(Oc3ccc(NC(=O)Nc4cc(C(C)(C)C)cc(NS(C)(=O)=O)c4OC)c4ccccc34)ccn2)ccc1C(=O)N(C)CCN1CCOCC1` [17(ab), 4-[[4-[[4-[[5-tert-butyl-3-(methanesulfonamido)-2-methoxy-phenyl]carbamoylamino]-1-naphthyl]oxy]-2-pyridyl]amino]-2-methoxy-N-methyl-N-(2-morpholinoethyl)benzamide], the half-inhibitory concentration (IC50) on GSK 3α is 0.596 µM.

Turning to `COc1cc(Nc2cc(Oc3ccc(NC(=O)Nc4cc(C(C)(C)C)cc(NS(C)(=O)=O)c4OC)c4ccccc34)ccn2)ccc1C(=O)NCCN(C)CCO` [17(ac), 4-[[4-[[4-[[5-tert-butyl-3-(methanesulfonamido)-2-methoxy-phenyl]carbamoylamino]-1-naphthyl]oxy]-2-pyridyl]amino]-N-[2-[2-hydroxyethyl(methyl)amino]ethyl]-2-methoxy-benzamide], at GSK 3α, the IC50 is 3.02 µM.

Turning to `COc1cc(Nc2cc(Oc3ccc(NC(=O)Nc4cc(C(C)(C)C)cc(NS(C)(=O)=O)c4OC)c4ccccc34)ccn2)ccc1C(=O)NCCN1CCCOCC1` [17(ai), 4-[[4-[[4-[[5-tert-butyl-3-(methanesulfonamido)-2-methoxy-phenyl]carbamoylamino]-1-naphthyl]oxy]-2-pyridyl]amino]-2-methoxy-N-[2-(1,4-oxazepan-4-yl)ethyl]benzamide], on GSK 3α, the IC50 was determined as 4.48 µM.

In the case of `COc1cc(Nc2cc(Oc3ccc(NC(=O)Nc4cc(C(C)(C)C)cc(NS(C)(=O)=O)c4OC)c4ccccc34)ccn2)ccc1C(=O)NCCCN1CCCOCC1` [17(aj), 4-[[4-[[4-[[5-tert-butyl-3-(methanesulfonamido)-2-methoxy-phenyl]carbamoylamino]-1-naphthyl]oxy]-2-pyridyl]amino]-2-methoxy-N-[3-(1,4-oxazepan-4-yl)propyl]benzamide], the IC50 on GSK 3α was found to be 2.64 µM.

For `COc1cc(Nc2cc(Oc3ccc(NC(=O)Nc4cc(C(C)(C)C)cc(NS(C)(=O)=O)c4OC)c4ccccc34)ccn2)ccc1C(=O)NCCN1CCC(F)(F)CC1` [17(al), 4-[[4-[[4-[[5-tert-butyl-3-(methanesulfonamido)-2-methoxy-phenyl]carbamoylamino]-1-naphthyl]oxy]-2-pyridyl]amino]-N-[2-(4,4-difluoro-1-piperidyl)ethyl]-2-methoxy-benzamide], on GSK 3α, the IC50 came out at 11.8 µM.

As to `COc1cc(Nc2cc(Oc3ccc(NC(=O)Nc4cc(C(C)(C)C)cc(NS(C)(=O)=O)c4OC)c4ccccc34)ccn2)ccc1C(=O)NCCN1C[C@@H](C)O[C@@H](C)C1` [17(c), 4-[[4-[[4-[[5-tert-butyl-3-(methanesulfonamido)-2-methoxy-phenyl]carbamoylamino]-1-naphthyl]oxy]-2-pyridyl]amino]-N-[2-[(2S,6R)yl]ethyl]-2-methoxy-benzamide], the IC50 at GSK 3α is more than 11.9 µM.

Turning to `COc1cc(Nc2cc(Oc3ccc(NC(=O)Nc4cc(C(C)(C)C)cc(NS(C)(=O)=O)c4OC)c4ccccc34)ccn2)ccc1C(=O)NCCN1CCOC(C)(C)C1` [17(d), 4-[[4-[[4-[[5-tert-butyl-3-(methanesulfonamido)-2-methoxy-phenyl]carbamoylamino]-1-naphthyl]oxy]-2-pyridyl]amino]-N-[2-(2,2-dimethylmorpholin-4-yl)ethyl]-2-methoxy-benzamide], the concentration for half-maximal inhibition (IC50) at GSK 3α is more than 11.9 µM.

Regarding `COc1cc(Nc2cc(Oc3ccc(NC(=O)Nc4cc(C(C)(C)C)cc(NS(C)(=O)=O)c4OC)c4ccccc34)ccn2)ccc1C(=O)NCC(=O)N1CCOCC1` [17(e), 4-[[4-[[4-[[5-tert-butyl-3-(methanesulfonamido)-2-methoxy-phenyl]carbamoylamino]-1-naphthyl]oxy]-2-pyridyl]amino]-2-methoxy-N-(2-morpholino-2-oxo-ethyl)benzamide], the IC50 on GSK 3α was determined as 7.42 µM.

Consider `COc1cc(Nc2cc(Oc3ccc(NC(=O)Nc4cc(C(C)(C)C)cc(NS(C)(=O)=O)c4OC)c4ccccc34)ccn2)ccc1C(=O)NCCN1CCCN(C)CC1` [17(f), 4-[[4-[[4-[[5-tert-butyl-3-(methanesulfonamido)-2-methoxy-phenyl]carbamoylamino]-1-naphthyl]oxy]-2-pyridyl]amino]-2-methoxy-N-[2-(4-methyl-1,4-diazepan-1-yl)ethyl]benzamide], for which the IC50 on GSK 3α worked out at 1.09 µM.

For `COCCOCCOC[C@@H](C)NC(=O)c1ccc(Nc2cc(Oc3ccc(NC(=O)Nc4cc(C(C)(C)C)cc(NS(C)(=O)=O)c4OC)c4ccccc34)ccn2)cc1OC` [17(g), 4-[[4-[[4-[[5-tert-butyl-3-(methanesulfonamido)-2-methoxy-phenyl]carbamoylamino]-1-naphthyl]oxy]-2-pyridyl]amino]-2-methoxy-N-[(1R)-2-[2-(2-methoxyethoxy)ethoxy]-1-methyl-ethyl]benzamide], the IC50 on GSK 3α amounted to 4.1 µM.

On to `COCCOCCOC[C@H](C)NC(=O)c1ccc(Nc2cc(Oc3ccc(NC(=O)Nc4cc(C(C)(C)C)cc(NS(C)(=O)=O)c4OC)c4ccccc34)ccn2)cc1OC` [17(h), 4-[[4-[[4-[[5-tert-butyl-3-(methanesulfonamido)-2-methoxy-phenyl]carbamoylamino]-1-naphthyl]oxy]-2-pyridyl]amino]-2-methoxy-N-[(1S)-2-[2-(2-methoxyethoxy)ethoxy]-1-methyl-ethyl]benzamide], for which the IC50 on GSK 3α was determined as 4.39 µM.

With `COc1cc(Nc2cc(Oc3ccc(NC(=O)Nc4cc(C(C)(C)C)cc(NS(C)(=O)=O)c4OC)c4ccccc34)ccn2)ccc1-n1ccccc1=O` [Example 31, N-(5-(tert-Butyl)-2-methoxy-3-(3-(4-((2-((3-methoxy-4-(2-oxopyridin-1(2H)-yl)phenyl)amino)-pyridin-4-yl)oxy)naphthalen-1-yl)ureido)phenyl)methanesulfonamide], the “% Viability at 20 μg/mL” value with Jurkat cells is recorded as 99.0%. The thermodynamic solubility at 24 h in series [1] (setting [2]) and in series [1] (setting [3]) was 0.003 mg/mL (≈ 4.01 µM) each time.

As to `COc1cc(Nc2cc(Oc3ccc(NC(=O)Nc4cc(C(C)(C)C)cc(NS(C)(=O)=O)c4OC)c4ccccc34)ccn2)ccc1C(=O)NCC(CO)(CO)CO` [Example 38, 4-((4-((4-(3-(5-(tert-Butyl)-2-methoxy-3-(methylsulfonamido)phenyl)ureido)naphthalen-1-yl)oxy)pyridin-2-yl)amino)-N-(3-hydroxy-2,2-bis(hydroxymethyl)propyl)-2-methoxybenzamide], in the series with Jurkat cells (1 μg/mL), the “% Viability at 1 μg/mL” value amounted to 90.0%. Further, the “% Viability at 20 μg/mL” value in the series with Jurkat cells turned out to be 6.0%. The results for the solubility (thermodynamic) at 24 h in series [1] (setting [2]) and in series [1] (setting [3]) were 0.014 mg/mL (≈ 17.1 µM) and 0.012 mg/mL (≈ 14.7 µM), respectively.

Turning to `COc1cc(Nc2cc(Oc3ccc(NC(=O)Nc4cc(C(C)(C)C)cc(NS(C)(=O)=O)c4OC)c4ccccc34)ccn2)cc(OC)c1C(=O)NCCN(C)C` [Example 39, 4-((4-((4-(3-(5-(tert-Butyl)-2-methoxy-3-(methylsulfonamido)phenyl)ureido)naphthalen-1-yl)oxy)pyridin-2-yl)amino)-N-(2-(dimethylamino)ethyl)-2,6-dimethoxybenzamide], the “% Viability at 20 μg/mL” value with Jurkat cells turned out to be 1.5%. Moreover, the solubility (thermodynamic) at 24 h in series [1] (setting [2]) was 0.222 mg/mL (≈ 278 µM); in series [1] (setting [3]), 0.247 mg/mL (≈ 309 µM); in series [1] (pH 6.5 FaSSCoF Solubility (mg/mL) Run 3) it was 0.073 mg/mL (≈ 91.3 µM); in series [1] (pH 6.5 FaSSCoF Solubility (mg/mL) Run 4) it was 0.097 mg/mL (≈ 121 µM).

Regarding `COc1cc(Nc2cc(Oc3ccc(NC(=O)Nc4cc(C(C)(C)C)cc(NS(C)(=O)=O)c4OC)c4ccccc34)ccn2)ccc1S(=O)(=O)CC(CO)(CO)CO` [Example 45, N-(5-(tert-Butyl)-3-(3-(4-((2-((4-((3-hydroxy-2,2-bis(hydroxymethyl)propyl)sulfonyl)-3-methoxyphenyl)amino)pyridin-4-yl)oxy)naphthalen-1-yl)ureido)-2-methoxyphenyl)-methanesulfonamide], in the series on Jurkat cells, the “% Viability at 20 μg/mL” value is 9.8%. Also, the solubility (thermodynamic) at 24 h in series [1] (setting [2]) and in series [1] (setting [3]) was 0.005 mg/mL (≈ 5.97 µM) in each case.
